In US7938981B2, “Deicing and heat transfer fluid compositions” (Bioamber S.A.S., priority 2009, dated 2011):
Like-named read-outs stand apart in the source and are kept apart here.

Tests used:
[1] = Biological Oxygen Demand (BOD5), 5 day test; settings: 50% (wt.) concentration in water, ratio BOD5 to COD
Description: The oxygen demand of a compound during chemical oxidation and biological degradation is an indication of the persistence of the chemical in the environment. […] BOD is the amount of oxygen required for biological oxidation by bacteria growing under aerobic conditions. The ratio of BOD to COD can be used to assess whether a compound is readily biodegradable. When BOD5 is expressed as a percentage of COD, a BOD5 that is <1% of COD indicates a relatively nonbiodegradable compound and >10% of COD indicates a relatively degradable compound (the subscript “5” denotes a 5 day test).

[2] = 25% (wt.) concentration in water; cited from earlier work
[3] = 50% (wt.) concentration in water, in five days, value with literature reference 17, cited from earlier work

| Compound | Biodegradability (BOD5/COD)% [1] | Freezing point [2] | Biodegradability (BOD5/COD)% ([3]; listed as Potassium formate) [%^17] | Biodegradability (BOD5/COD)% ([3]; listed as potassium formate) [%] | Biodegradability (BOD5/COD)% ([1]; listed as Potassium Succinate) [%] | Biodegradability (BOD5/COD)% ([1]; listed as succinate) |
| --- | --- | --- | --- | --- | --- | --- |
| OCCO [Ethylene Glycol] | 61% | −12.0^20 °C |  |  |  |  |
| CC(O)CO (stereo not drawn) [Propylene Glycol] | 59% | −11.0^21 °C |  |  |  |  |
| O=C[O-].[K+] [Test No. 3, potassium formate] |  | −15.0^17 °C | 100 | 100 |  |  |
| CC(=O)[O-].[K+] [Test No. 2, potassium acetate] | highly biodegradable | −18.0^14 °C |  |  |  |  |
| O=C([O-])CCC(=O)[O-].[K+].[K+] [Test No. 1, potassium succinate] |  | −12.5^14 °C |  |  | 68 | highly biodegradable |
